Reference: US20160243021A1, “Collagen-Boosting Compositions And Methods” (ELC MANAGEMENT LLC, priority 2015, published 2016)

How the values were obtained:
Assay type in all cases: cell-based, human
[1] = test system: adult NHDFs; assay: Collagen-boosting assay, Example 3 (PIP ELISA; Argireline); settings: 3 days
Method: In this assay, Argireline was tested for its efficacy in boosting collagen synthesis in NHDFs. TGFβ was run as a positive control.
Adult NHDFs were seeded and grown to confluence in a 96 well plate prior to treatment with Argireline at concentrations of 0.001, 0.01, 0.1 and 1% (v/v) in media (negative control) or with 10 ng/ml TGFβ (positive control) in media.
The plate was incubated for 3 days at 37° C./5% CO2. Supernatants were harvested and stored at −80° C. in siliconized tubes until the PIP ELISA was performed, as described in Example 1. For this assay, supernatants were diluted 1:40.

[2] = test system: adult NHDFs; assay: Collagen-boosting assay, Example 4 (PIP ELISA; Mitostime); settings: 10 ng/ml; 3 days
Method: Mitostime was tested for its collagen-boosting efficacy in NHDFs. TGFβ, at 10 ng/ml, was run as a positive control. Adult NHDFs were seeded and grown to confluence in a 96 well plate prior to treatment with mitostime 0.075%, 0.15% and 0.3% (w/v). The plate was incubated for 3 days at 37° C./5% CO2. Supernatants were harvested and stored at −80° C. in siliconized tubes until the PIP ELISA was performed as outlined in Example 1. For this assay, supernatants were diluted 1:200. […] TGFβ increased collagen synthesis by 27% (p=0.0001).

[3] = test system: adult NHDFs; assay: Collagen-boosting assay, Example 4 (PIP ELISA; Mitostime in combination with Argireline); settings: 10 ng/ml; 3 days
Method: Mitostime also was tested in combination with Argireline for efficacy in boosting collagen synthesis in NHDFs. TGFβ, at 10 ng/ml, was run as a positive control. Adult NHDFs were seeded and grown to confluence in a 96 well plate prior to treatment with Mitostime at 0.3%/Argireline peptide at 0.00005%; Mitostime at 0.15%/Argireline peptide at 0.000025%; and Mitostime at 0.075%/Argireline peptide at 0.0000125%. The plate was incubated for 3 days at 37° C./5% CO2. Supernatants were harvested and stored at −80° C. in siliconized tubes until the PIP ELISA was performed as outlined in Example 1. For this assay, supernatants were diluted 1:200. […] TGFβ increased collagen synthesis by 23%.

[4] = test system: adult NHDF cells; assay: Collagen-boosting assay, Example 5 (PIP ELISA; NXP-75); settings: 10 ng/ml; 3 days
Method: In this assay, NXP-75 was tested for its efficacy in boosting collagen synthesis in NHDFs. TGFβ (10 ng/ml) was run as a positive control. Adult NHDF cells were seeded and grown to confluence in a 96 well flat bottom plate prior to treatment. NXP-75 powder was prepared at the following dilutions: 0.0001, 0.001, 0.01 and 0.1% (w/v) in media (negative control). The plate was incubated for 3 days at 37° C./5% CO2. Supernatants were harvested and stored at −80° C. in siliconized tubes until the PIP ELISA was performed. For this assay, supernatants were diluted 1:200. […] TGFβ enhanced collagen synthesis by 20% compared with media.

## acetyl hexapeptide-3 [Argireline]
[1]; 0.01%
  increase in collagen synthesis compared with media: 29%
[1]; 0.1% (v/v)
  increase in collagen synthesis compared with media: 76%

## TGFβ
[2]
  increase in collagen synthesis compared with media: 27%
[1]; 10 ng/ml
  increase in collagen levels: 147%
[3]
  increase in collagen synthesis: 23%
[4]
  boost of collagen synthesis compared with media: 20%
